Measurements published in patent US8741886B2, “Baclofen and acamprosate based therapy of neurological disorders” (Pharnext, priority 2011, dated 2014).

Test system: mice injected i.c.v. with Aβ25-35 peptide
Assay: Passive avoidance test after i.c.v. Aβ25-35
Format: in vivo
Details: Acamprosate 0.2 mg/kg; Baclofen 3 mg/kg
Protocol: Male Swiss mice are used throughout the study. Animals are housed in plastic cages, with free access to laboratory chow and water, except during behavioural experiments, and kept in a regulated environment, under a 12 h light/dark cycle (light on at 8:00 a.m.). Experiments are carried out in a soundproof and air-regulated experimental room, to which mice have been habituated at least 30 min before each experiment.
Drug(s) is/are daily administered by gavage (per os). The β25-35 peptide and scrambled β 25-35 peptide (control) have been dissolved in sterile bidistilled water, and stored at −20° C. until use. The β-amyloid peptides are then administered intracerebroventricularly (i.c.v.). […]
On day 7 and 8, the contextual long-term memory of the animals is assessed using the […] passive avoidance procedure.
The apparatus is a two-compartment (15×20×15 cm high) box with one illuminated with white polyvinylchloride walls and the other darkened with black polyvinylchloride walls and a grid floor. […] The step-through latency, that is, the latency spent to enter the darkened compartment, and the number of vocalizations is recorded. […] After 5 s the doors is raised, the step-through latency and the escape latency, i.e. the time spent to return into the white compartment, are recorded up to 300 s.

SMILES: CC(=O)NCCCS(=O)(=O)O [Acamprosate]
- effect on step-through latency, drugs alone compared with the combination (in words): lower effect

SMILES: NCC(CC(=O)O)c1ccc(Cl)cc1 (centres unmarked) [Baclofen]
- effect on step-through latency, drugs alone compared with the combination (in words): lower effect
